pIC50: −log10 of the molar value.
molecular target: T1, dihydrolipoamide acyltransferase (DlaT) (Mycobacterium tuberculosis, UniProt P9WIS7); assay: DlaT inhibition (Dlat IC50); DTNB peroxidase assay with Lpd, DlaT and AhpD; type: biochemical; settings: Table 1, Compounds A1 to A294; read-out: Dlat IC50 category
T1 sequence (P9WIS7 1-553): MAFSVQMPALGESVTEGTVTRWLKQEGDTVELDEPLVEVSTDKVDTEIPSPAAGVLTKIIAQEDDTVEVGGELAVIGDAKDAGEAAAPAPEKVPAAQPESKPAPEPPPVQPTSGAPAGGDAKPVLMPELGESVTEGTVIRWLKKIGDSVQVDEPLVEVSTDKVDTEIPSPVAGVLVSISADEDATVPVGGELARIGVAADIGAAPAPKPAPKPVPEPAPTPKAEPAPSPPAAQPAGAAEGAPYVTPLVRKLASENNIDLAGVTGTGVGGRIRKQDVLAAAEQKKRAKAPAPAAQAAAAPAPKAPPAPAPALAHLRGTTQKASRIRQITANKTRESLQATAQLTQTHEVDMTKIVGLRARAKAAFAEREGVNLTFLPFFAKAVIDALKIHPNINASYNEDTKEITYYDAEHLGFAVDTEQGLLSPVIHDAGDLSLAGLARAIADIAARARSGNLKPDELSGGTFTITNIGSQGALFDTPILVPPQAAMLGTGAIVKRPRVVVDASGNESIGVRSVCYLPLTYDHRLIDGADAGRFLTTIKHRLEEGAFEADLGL

Compound	pIC50
CC(=O)Nc1ccc(-c2ccc(C=C3SC(=S)N(c4cccc(C(=O)O)c4)C3=O)o2)cc1 [Compound A204]	> 5.00
CC(=O)Nc1ccc(-c2ccc(C=C3SC(=S)N(c4cc(C(=O)O)ccc4F)C3=O)o2)cc1 [Compound A205]	> 5.00
CC(=O)c1ccc(-c2ccc(C=C3SC(=S)N(c4cccc(C(=O)O)c4)C3=O)o2)cc1 [Compound A206]	> 5.00
CC(=O)c1ccc(-c2ccc(C=C3SC(=S)N(c4cc(C(=O)O)ccc4F)C3=O)o2)cc1 [Compound A207]	> 5.00
O=C(O)c1ccc(F)c(N2C(=O)C(=Cc3ccc(-c4ccccc4F)o3)SC2=S)c1 [Compound A208]	4.40 to 4.96
O=C(O)c1cccc(N2C(=O)C(=Cc3ccc(-c4cccc(CO)c4)o3)SC2=S)c1 [Compound A209]	> 5.00
O=C(O)c1ccc(F)c(N2C(=O)C(=Cc3ccc(-c4cccc(CO)c4)o3)SC2=S)c1 [Compound A210]	> 5.00
O=C(O)c1cccc(N2C(=O)C(=Cc3ccc(-c4ccc(F)cc4)o3)SC2=S)c1 [Compound A211]	> 5.00
O=C(O)c1ccc(F)c(N2C(=O)C(=Cc3ccc(-c4ccc(F)cc4)o3)SC2=S)c1 [Compound A212]	> 5.00
CCOc1ccc(-c2ccc(C=C3SC(=S)N(c4cccc(C(=O)O)c4)C3=O)o2)cc1 [Compound A217]	4.40 to 4.96
CCOc1ccc(-c2ccc(C=C3SC(=S)N(c4cc(C(=O)O)ccc4F)C3=O)o2)cc1 [Compound A218]	> 5.00
O=C(O)c1cccc(N2C(=O)C(=Cc3ccc(-c4ccc(OCc5ccccc5)cc4)o3)SC2=S)c1 [Compound A219]	4.40 to 4.96
O=C(O)c1ccc(F)c(N2C(=O)C(=Cc3ccc(-c4ccc(OCc5ccccc5)cc4)o3)SC2=S)c1 [Compound A220]	4.40 to 4.96
O=C(O)c1cc(N2C(=O)C(=Cc3ccc(-c4ccccc4Cl)o3)SC2=S)cc(C(F)(F)F)c1 [Compound A221]	4.40 to 4.96
O=C(O)c1cc(N2C(=O)C(=Cc3ccc(-c4ccccc4F)o3)SC2=S)cc(C(F)(F)F)c1 [Compound A222]	> 5.00
O=C(O)c1cc(N2C(=O)C(=Cc3ccc(-c4ccc(Cl)cc4)o3)SC2=S)cc(C(F)(F)F)c1 [Compound A223]	4.40 to 4.96
Cc1ccc(-c2ccc(C=C3SC(=S)N(c4cc(C(=O)O)cc(C(F)(F)F)c4)C3=O)o2)cc1 [Compound A224]	> 5.00
CCc1ccc(-c2ccc(C=C3SC(=S)N(c4cc(C(=O)O)cc(C(F)(F)F)c4)C3=O)o2)cc1 [Compound A225]	4.40 to 4.96
CCCCOc1ccc(-c2ccc(C=C3SC(=S)N(c4cccc(C(=O)O)c4)C3=O)o2)cc1 [Compound A226]	< 4.39
CCCCOc1ccc(-c2ccc(C=C3SC(=S)N(c4cc(C(=O)O)ccc4F)C3=O)o2)cc1 [Compound A227]	4.40 to 4.96
CS(=O)(=O)c1ccc(-c2ccc(C=C3SC(=S)N(c4cccc(C(=O)O)c4)C3=O)o2)cc1 [Compound A228]	> 5.00
CS(=O)(=O)c1ccc(-c2ccc(C=C3SC(=S)N(c4cc(C(=O)O)ccc4F)C3=O)o2)cc1 [Compound A229]	4.40 to 4.96
O=C(O)c1cc(C(=O)O)cc(N2C(=O)C(=Cc3ccc(-c4ccccc4Cl)o3)SC2=S)c1 [Compound A230]	> 5.00

Compound	pIC50
O=C(O)c1cc(C(=O)O)cc(N2C(=O)C(=Cc3ccc(-c4ccccc4F)o3)SC2=S)c1 [Compound A231]	< 4.39
O=C(O)c1cc(C(=O)O)cc(N2C(=O)C(=Cc3ccc(-c4ccc(Cl)cc4)o3)SC2=S)c1 [Compound A232]	4.40 to 4.96
CCc1ccc(-c2ccc(C=C3SC(=S)N(c4cc(C(=O)O)cc(C(=O)O)c4)C3=O)o2)cc1 [Compound A233]	> 5.00
Cc1ccccc1-c1ccc(C=C2SC(=S)N(c3cc(C(=O)O)cc(C(F)(F)F)c3)C2=O)o1 [Compound A234]	> 5.00
Cc1ccccc1-c1ccc(C=C2SC(=S)N(c3cc(C(=O)O)cc(C(=O)O)c3)C2=O)o1 [Compound A235]	> 5.00
CSc1cccc(-c2ccc(C=C3SC(=S)N(c4cccc(C(=O)O)c4)C3=O)o2)c1 [Compound A236]	> 5.00
CSc1cccc(-c2ccc(C=C3SC(=S)N(c4cc(C(=O)O)ccc4F)C3=O)o2)c1 [Compound A237]	> 5.00
CSc1ccc(-c2ccc(C=C3SC(=S)N(c4cccc(C(=O)O)c4)C3=O)o2)cc1 [Compound A238]	> 5.00
CSc1ccc(-c2ccc(C=C3SC(=S)N(c4cc(C(=O)O)ccc4F)C3=O)o2)cc1 [Compound A239]	> 5.00
CC(C)Oc1ccc(-c2ccc(C=C3SC(=S)N(c4cccc(C(=O)O)c4)C3=O)o2)cc1 [Compound A240]	> 5.00
CC(C)Oc1ccc(-c2ccc(C=C3SC(=S)N(c4cc(C(=O)O)ccc4F)C3=O)o2)cc1 [Compound A241]	> 5.00
Cc1ccc(-c2cccc(C=C3SC(=S)N(c4cccc(C(=O)O)c4)C3=O)c2)cc1 [Compound A242]	4.40 to 4.96
Cc1ccc(-c2cccc(C=C3SC(=S)N(c4cc(C(=O)O)ccc4F)C3=O)c2)cc1 [Compound A243]	> 5.00
O=C(O)c1cccc(N2C(=O)C(=Cc3ccc(-c4ccccc4-c4ccccc4)o3)SC2=S)c1 [Compound A244]	> 5.00
O=C(O)c1ccc(F)c(N2C(=O)C(=Cc3ccc(-c4ccccc4-c4ccccc4)o3)SC2=S)c1 [Compound A245]	> 5.00
Cc1ccc(-c2ccc(C=C3SC(=S)N(c4cccc(C(=O)O)c4)C3=O)cc2)cc1 [Compound A246]	> 5.00
Cc1ccc(-c2ccc(C=C3SC(=S)N(c4cc(C(=O)O)ccc4F)C3=O)cc2)cc1 [Compound A247]	4.40 to 4.96
Cc1ccc(-c2ccc(C=C3SC(=S)N(c4cc(C(=O)O)cc(C(F)(F)F)c4)C3=O)cc2)cc1 [Compound A248]	> 5.00
CCc1ccccc1-c1ccc(C=C2SC(=S)N(c3cccc(C(=O)O)c3)C2=O)o1 [Compound A249]	> 5.00
CCc1ccccc1-c1ccc(C=C2SC(=S)N(c3cc(C(=O)O)ccc3F)C2=O)o1 [Compound A250]	> 5.00
O=C(O)c1cccc(N2C(=O)C(=Cc3nc(-c4ccccc4)cs3)SC2=S)c1 [Compound A251]	4.40 to 4.96
O=C(O)c1ccc(F)c(N2C(=O)C(=Cc3nc(-c4ccccc4)cs3)SC2=S)c1 [Compound A252]	4.40 to 4.96
COc1ccc(C)cc1-c1ccc(C=C2SC(=S)N(c3cccc(C(=O)O)c3)C2=O)o1 [Compound A253]	> 5.00

Compound	pIC50
COc1ccc(C)cc1-c1ccc(C=C2SC(=S)N(c3cc(C(=O)O)ccc3F)C2=O)o1 [Compound A254]	> 5.00
O=C(O)c1cc(N2C(=O)C(=Cc3ccc(-c4ccccc4Cl)o3)SC2=S)ccc1F [Compound A255]	4.40 to 4.96
O=C(O)c1cc(N2C(=O)C(=Cc3ccc(-c4ccccc4F)o3)SC2=S)ccc1F [Compound A256]	4.40 to 4.96
Cc1ccccc1-c1ccc(C=C2SC(=S)N(c3ccc(F)c(C(=O)O)c3)C2=O)o1 [Compound A257]	4.40 to 4.96
O=C(O)c1cc(N2C(=O)C(=Cc3ccc(-c4ccc(Cl)cc4)o3)SC2=S)ccc1F [Compound A258]	> 5.00
O=C(O)c1cc(N2C(=O)C(=Cc3ccc(-c4ccc(F)cc4)o3)SC2=S)ccc1F [Compound A259]	4.40 to 4.96
Cc1ccc(-c2ccc(C=C3SC(=S)N(c4ccc(F)c(C(=O)O)c4)C3=O)o2)cc1 [Compound A260]	> 5.00
CC(=O)Nc1ccc(-c2ccc(C=C3SC(=S)N(c4cc(C(=O)O)cc(C(F)(F)F)c4)C3=O)o2)cc1 [Compound A261]	> 5.00
CC(=O)Nc1ccc(-c2ccc(C=C3SC(=S)N(c4ccc(F)c(C(=O)O)c4)C3=O)o2)cc1 [Compound A262]	4.40 to 4.96
CCCCc1ccc(-c2ccc(C=C3SC(=S)N(c4cccc(C(=O)O)c4)C3=O)o2)cc1 [Compound A263]	> 5.00
CCCCc1ccc(-c2ccc(C=C3SC(=S)N(c4cc(C(=O)O)ccc4F)C3=O)o2)cc1 [Compound A264]	> 5.00
CCCCc1ccc(-c2ccc(C=C3SC(=S)N(c4ccc(F)c(C(=O)O)c4)C3=O)o2)cc1 [Compound A265]	> 5.00
CCCCc1ccc(-c2ccc(C=C3SC(=S)N(c4cc(C(=O)O)cc(C(F)(F)F)c4)C3=O)o2)cc1 [Compound A266]	> 5.00
CS(=O)(=O)c1ccc(-c2ccc(C=C3SC(=S)N(c4cc(C(=O)O)cc(C(F)(F)F)c4)C3=O)o2)cc1 [Compound A267]	> 5.00
CS(=O)(=O)c1ccc(-c2ccc(C=C3SC(=S)N(c4ccc(F)c(C(=O)O)c4)C3=O)o2)cc1 [Compound A268]	> 5.00
CCCc1ccc(-c2ccc(C=C3SC(=S)N(c4cccc(C(=O)O)c4)C3=O)o2)cc1 [Compound A269]	> 5.00
CCCc1ccc(-c2ccc(C=C3SC(=S)N(c4cc(C(=O)O)ccc4F)C3=O)o2)cc1 [Compound A270]	> 5.00
CCCc1ccc(-c2ccc(C=C3SC(=S)N(c4ccc(F)c(C(=O)O)c4)C3=O)o2)cc1 [Compound A271]	> 5.00
CCCc1ccc(-c2ccc(C=C3SC(=S)N(c4cc(C(=O)O)cc(C(F)(F)F)c4)C3=O)o2)cc1 [Compound A272]	4.40 to 4.96
CN(C)c1ccc(N2C(=O)C(=Cc3ccc(-c4ccccc4Cl)o3)SC2=S)cc1C(=O)O [Compound A274]	4.40 to 4.96
CN(C)c1ccc(N2C(=O)C(=Cc3ccc(-c4cccc(Cl)c4)o3)SC2=S)cc1C(=O)O [Compound A275]	4.40 to 4.96
O=C(O)c1cc(N2C(=O)C(=Cc3ccc(-c4ccccc4OCc4ccccc4)o3)SC2=S)ccc1F [Compound A279]	> 5.00

— patent US8338465B2, “Cyclic carboxylic acid rhodanine derivatives for the treatment and prevention of tuberculosis” (priority 2006, dated 2012)
